Measured values reported in the NIST ThermoML archive (doi:10.1021/je800224k).

Details: Liquid

CCCCCCCC[n+]1ccn(C)c1.F[P-](F)(F)(F)(F)F [1-octyl-3-methylimidazolium hexafluorophosphate]
Details | mass density [kg/m3]
293.15 K, 101.33 kPa, Vibrating tube method | 1240.8
312.8 K, 10000 kPa, Bellows volumetry | 1230
312.8 K, 20000 kPa, Bellows volumetry | 1236
312.8 K, 30000 kPa, Bellows volumetry | 1241
312.8 K, 40000 kPa, Bellows volumetry | 1247
312.8 K, 50000 kPa, Bellows volumetry | 1252
312.8 K, 60000 kPa, Bellows volumetry | 1257
312.8 K, 70000 kPa, Bellows volumetry | 1261
312.8 K, 80000 kPa, Bellows volumetry | 1266
312.8 K, 90000 kPa, Bellows volumetry | 1270
312.8 K, 100000 kPa, Bellows volumetry | 1275
312.8 K, 110000 kPa, Bellows volumetry | 1279
312.8 K, 120000 kPa, Bellows volumetry | 1283
312.8 K, 130000 kPa, Bellows volumetry | 1287
312.8 K, 140000 kPa, Bellows volumetry | 1291
312.8 K, 150000 kPa, Bellows volumetry | 1294
312.8 K, 160000 kPa, Bellows volumetry | 1298
312.8 K, 170000 kPa, Bellows volumetry | 1302
312.8 K, 180000 kPa, Bellows volumetry | 1305
312.8 K, 190000 kPa, Bellows volumetry | 1309
312.8 K, 200000 kPa, Bellows volumetry | 1312
313.15 K, 101.33 kPa, Vibrating tube method | 1225
332.6 K, 10000 kPa, Bellows volumetry | 1215
332.6 K, 20000 kPa, Bellows volumetry | 1221
332.6 K, 30000 kPa, Bellows volumetry | 1227
332.6 K, 40000 kPa, Bellows volumetry | 1233
332.6 K, 50000 kPa, Bellows volumetry | 1238
332.6 K, 60000 kPa, Bellows volumetry | 1243
332.6 K, 70000 kPa, Bellows volumetry | 1248
332.6 K, 80000 kPa, Bellows volumetry | 1253
332.6 K, 90000 kPa, Bellows volumetry | 1257
332.6 K, 100000 kPa, Bellows volumetry | 1262
332.6 K, 110000 kPa, Bellows volumetry | 1266
332.6 K, 120000 kPa, Bellows volumetry | 1270
332.6 K, 130000 kPa, Bellows volumetry | 1274
332.6 K, 140000 kPa, Bellows volumetry | 1278
332.6 K, 150000 kPa, Bellows volumetry | 1282
332.6 K, 160000 kPa, Bellows volumetry | 1286
332.6 K, 170000 kPa, Bellows volumetry | 1290
332.6 K, 180000 kPa, Bellows volumetry | 1293
332.6 K, 190000 kPa, Bellows volumetry | 1297
332.6 K, 200000 kPa, Bellows volumetry | 1300
333.15 K, 101.33 kPa, Vibrating tube method | 1210
352.6 K, 10000 kPa, Bellows volumetry | 1200
352.6 K, 20000 kPa, Bellows volumetry | 1207
352.6 K, 30000 kPa, Bellows volumetry | 1213
352.6 K, 40000 kPa, Bellows volumetry | 1219
352.6 K, 50000 kPa, Bellows volumetry | 1224
352.6 K, 60000 kPa, Bellows volumetry | 1230
352.6 K, 70000 kPa, Bellows volumetry | 1235
352.6 K, 80000 kPa, Bellows volumetry | 1240
352.6 K, 90000 kPa, Bellows volumetry | 1245
352.6 K, 100000 kPa, Bellows volumetry | 1249
352.6 K, 110000 kPa, Bellows volumetry | 1254
352.6 K, 120000 kPa, Bellows volumetry | 1258
352.6 K, 130000 kPa, Bellows volumetry | 1262
352.6 K, 140000 kPa, Bellows volumetry | 1266
352.6 K, 150000 kPa, Bellows volumetry | 1270
352.6 K, 160000 kPa, Bellows volumetry | 1274
352.6 K, 170000 kPa, Bellows volumetry | 1278
352.6 K, 180000 kPa, Bellows volumetry | 1282
352.6 K, 190000 kPa, Bellows volumetry | 1286
352.6 K, 200000 kPa, Bellows volumetry | 1289
353.15 K, 101.33 kPa, Vibrating tube method | 1195.2
372.8 K, 10000 kPa, Bellows volumetry | 1186
372.8 K, 20000 kPa, Bellows volumetry | 1193
372.8 K, 30000 kPa, Bellows volumetry | 1199
372.8 K, 40000 kPa, Bellows volumetry | 1205
372.8 K, 50000 kPa, Bellows volumetry | 1211
372.8 K, 60000 kPa, Bellows volumetry | 1217
372.8 K, 70000 kPa, Bellows volumetry | 1222
372.8 K, 80000 kPa, Bellows volumetry | 1227
372.8 K, 90000 kPa, Bellows volumetry | 1232
372.8 K, 100000 kPa, Bellows volumetry | 1237
372.8 K, 110000 kPa, Bellows volumetry | 1242
372.8 K, 120000 kPa, Bellows volumetry | 1246
372.8 K, 130000 kPa, Bellows volumetry | 1250
372.8 K, 140000 kPa, Bellows volumetry | 1255
372.8 K, 150000 kPa, Bellows volumetry | 1259
372.8 K, 160000 kPa, Bellows volumetry | 1263
372.8 K, 170000 kPa, Bellows volumetry | 1267
372.8 K, 180000 kPa, Bellows volumetry | 1271
372.8 K, 190000 kPa, Bellows volumetry | 1274
372.8 K, 200000 kPa, Bellows volumetry | 1278
392.8 K, 10000 kPa, Bellows volumetry | 1171
392.8 K, 20000 kPa, Bellows volumetry | 1179
392.8 K, 30000 kPa, Bellows volumetry | 1186
392.8 K, 40000 kPa, Bellows volumetry | 1192
392.8 K, 50000 kPa, Bellows volumetry | 1198
392.8 K, 60000 kPa, Bellows volumetry | 1204
392.8 K, 70000 kPa, Bellows volumetry | 1209
392.8 K, 80000 kPa, Bellows volumetry | 1215
392.8 K, 90000 kPa, Bellows volumetry | 1220
392.8 K, 100000 kPa, Bellows volumetry | 1225
392.8 K, 110000 kPa, Bellows volumetry | 1230
392.8 K, 120000 kPa, Bellows volumetry | 1235
392.8 K, 130000 kPa, Bellows volumetry | 1239
392.8 K, 140000 kPa, Bellows volumetry | 1243
392.8 K, 150000 kPa, Bellows volumetry | 1248
392.8 K, 160000 kPa, Bellows volumetry | 1252
392.8 K, 170000 kPa, Bellows volumetry | 1256
392.8 K, 180000 kPa, Bellows volumetry | 1260
392.8 K, 190000 kPa, Bellows volumetry | 1264
392.8 K, 200000 kPa, Bellows volumetry | 1268
413 K, 10000 kPa, Bellows volumetry | 1157
413 K, 20000 kPa, Bellows volumetry | 1165
413 K, 30000 kPa, Bellows volumetry | 1172
413 K, 40000 kPa, Bellows volumetry | 1179
413 K, 50000 kPa, Bellows volumetry | 1185
413 K, 60000 kPa, Bellows volumetry | 1191
413 K, 70000 kPa, Bellows volumetry | 1197
413 K, 80000 kPa, Bellows volumetry | 1203
413 K, 90000 kPa, Bellows volumetry | 1208
413 K, 100000 kPa, Bellows volumetry | 1213
413 K, 110000 kPa, Bellows volumetry | 1218
413 K, 120000 kPa, Bellows volumetry | 1223
413 K, 130000 kPa, Bellows volumetry | 1228
413 K, 140000 kPa, Bellows volumetry | 1232
413 K, 150000 kPa, Bellows volumetry | 1237
413 K, 160000 kPa, Bellows volumetry | 1241
413 K, 170000 kPa, Bellows volumetry | 1245
413 K, 180000 kPa, Bellows volumetry | 1249
413 K, 190000 kPa, Bellows volumetry | 1253
413 K, 200000 kPa, Bellows volumetry | 1257
432.7 K, 10000 kPa, Bellows volumetry | 1144
432.7 K, 20000 kPa, Bellows volumetry | 1152
432.7 K, 30000 kPa, Bellows volumetry | 1159
432.7 K, 40000 kPa, Bellows volumetry | 1166
432.7 K, 50000 kPa, Bellows volumetry | 1173
432.7 K, 60000 kPa, Bellows volumetry | 1179
432.7 K, 70000 kPa, Bellows volumetry | 1185
432.7 K, 80000 kPa, Bellows volumetry | 1191
432.7 K, 90000 kPa, Bellows volumetry | 1197
432.7 K, 100000 kPa, Bellows volumetry | 1202
432.7 K, 110000 kPa, Bellows volumetry | 1207
432.7 K, 120000 kPa, Bellows volumetry | 1212
432.7 K, 130000 kPa, Bellows volumetry | 1217
432.7 K, 140000 kPa, Bellows volumetry | 1222
432.7 K, 150000 kPa, Bellows volumetry | 1226
432.7 K, 160000 kPa, Bellows volumetry | 1231
432.7 K, 170000 kPa, Bellows volumetry | 1235
432.7 K, 180000 kPa, Bellows volumetry | 1239
432.7 K, 190000 kPa, Bellows volumetry | 1243
432.7 K, 200000 kPa, Bellows volumetry | 1247
452.5 K, 10000 kPa, Bellows volumetry | 1130
452.5 K, 20000 kPa, Bellows volumetry | 1138
452.5 K, 30000 kPa, Bellows volumetry | 1146
452.5 K, 40000 kPa, Bellows volumetry | 1153
452.5 K, 50000 kPa, Bellows volumetry | 1160
452.5 K, 60000 kPa, Bellows volumetry | 1167
452.5 K, 70000 kPa, Bellows volumetry | 1173
452.5 K, 80000 kPa, Bellows volumetry | 1179
452.5 K, 90000 kPa, Bellows volumetry | 1185
452.5 K, 100000 kPa, Bellows volumetry | 1191
452.5 K, 110000 kPa, Bellows volumetry | 1196
452.5 K, 120000 kPa, Bellows volumetry | 1201
452.5 K, 130000 kPa, Bellows volumetry | 1206
452.5 K, 140000 kPa, Bellows volumetry | 1211
452.5 K, 150000 kPa, Bellows volumetry | 1216
452.5 K, 160000 kPa, Bellows volumetry | 1220
452.5 K, 170000 kPa, Bellows volumetry | 1225
452.5 K, 180000 kPa, Bellows volumetry | 1229
452.5 K, 190000 kPa, Bellows volumetry | 1233
452.5 K, 200000 kPa, Bellows volumetry | 1237
472.3 K, 10000 kPa, Bellows volumetry | 1116
472.3 K, 20000 kPa, Bellows volumetry | 1125
472.3 K, 30000 kPa, Bellows volumetry | 1133
472.3 K, 40000 kPa, Bellows volumetry | 1141
472.3 K, 50000 kPa, Bellows volumetry | 1148
472.3 K, 60000 kPa, Bellows volumetry | 1155
472.3 K, 70000 kPa, Bellows volumetry | 1162
472.3 K, 80000 kPa, Bellows volumetry | 1168
472.3 K, 90000 kPa, Bellows volumetry | 1174
472.3 K, 100000 kPa, Bellows volumetry | 1180
472.3 K, 110000 kPa, Bellows volumetry | 1185
472.3 K, 120000 kPa, Bellows volumetry | 1191
472.3 K, 130000 kPa, Bellows volumetry | 1196
472.3 K, 140000 kPa, Bellows volumetry | 1201
472.3 K, 150000 kPa, Bellows volumetry | 1205
472.3 K, 160000 kPa, Bellows volumetry | 1210
472.3 K, 170000 kPa, Bellows volumetry | 1215
472.3 K, 180000 kPa, Bellows volumetry | 1219
472.3 K, 190000 kPa, Bellows volumetry | 1223
472.3 K, 200000 kPa, Bellows volumetry | 1228
